{"source": "patent US20100144868A1", "about": "“Novel Neuroprotective Compounds and Uses Thereof” (Ramot At Aviv University Ltd., priority 2005, published 2010)", "key": {"[1]": {"details": "for Increase of maximal aqueous solubility: with a 10 fold increase in DMSO content", "experimental": "20 mg of each of the tested hybrid compounds of the present invention was dissolved in 0.2 ml of DMSO and then diluted with 200 ml, 40 ml, 20 ml and 10 ml of water to obtain a 0.1%, 0.5% 0.1% and 2.0% DMSO content in the aqueous solution, respectively. Each aqueous solution was sonicated for 2 minutes, filtered through 0.2 micron filter and centrifuged at 14,000 rpm for 3 minutes. UV-VIS spectra were obtained thereafter at 476 nm to determine the solubilized fraction of the tested hybrid compound."}, "[2]": {"test_system": "MOG-induced EAE in NOD mice", "test": "Efficacy in MOG-induced EAE in NOD mice, daily treatment from day 20 to day 70", "format": "in vivo", "details": "for Severity of EAE (in words): compared to carboxyfullerene treated and vehicle (PBS) treated mice, Table 3, FIG. 3; for Phase II Second Peak Mean Score Disease / Phase III Third Peak Mean Score Disease / Phase IV Secondary Progressive Mean Score Disease: scale 0-5; for Cumulative Score: days 21-70; for Prevalence of Disease with score above 1.5: treated daily from day 20 after immunization to day 70; for Phase IV Secondary Progressive Mean Score Disease: day 70", "method": "Non-obese diabetic (NOD) mice were purchased from Jackson laboratories. The mice were maintained in viral antibody-free (VAF) facility at Harvard Institutes of Medicine animal care facility and used at 10 weeks of age.\nMyelin oligodendrocyte glycoprotein (MOG 35-55) was synthesized at the peptide/protein facility at the center for neurologic disease at BWH, Boston, Mass., USA.\n(§1) Mice were immunized S.C. with 150 μg of MOG 35-55 peptide in […].\n(§2) Pertussis toxin was given I.V. (150 ng per mouse) at the time of immunization and 48 hours later. The severity of disease was evaluated daily on the following scale: 0 for no clinical symptoms; 1 for distal tail weakness or tail atonia; 2 for impaired righting reflex and slight hind limb paralysis; 3 for complete paralysis affecting of both hind limbs; 4 for complete paralysis affecting of both hind limbs and fore limb weakness, or moribund state; and 5 for death."}, "[3]": {"test_system": "MOG-induced EAE in NOD mice", "test": "Efficacy in MOG-induced EAE in NOD mice, Compound 20 at two doses compared to NBQX, daily from day 23", "format": "in vivo", "method": "as §1, §2"}, "[4]": {"test_system": "spinal cord of EAE-induced NOD mice", "test": "Histological staining of spinal cord sections of EAE-induced NOD mice (Bielschowsky silver, Luxol fast blue)", "format": "in vivo", "method": "The attenuation of EAE progress in model animals was further tested by following pathological findings thereof in 7 μm coronal spinal cord section samples of the tested mice under cryogenic conditions. The axonal pathology analysis was performed on day 63 post-immunization by immunostaining of spinal cord sections. Spinal cord sections from mice were fixed in 4% paraformaldehyde overnight followed by 4.5% sucrose for 4 hours, then 20% sucrose for overnight at 4° C. Spinal cord sections were frozen and stored until used at −80° C.\nHistological staining studies of spinal cord sections were preformed according to the Bielschowsky silver staining method, which specifically stains nerve fibers and axons so as to appear in black when observed under an optical microscope, and according to the Luxol fast blue staining method, which specifically stains myelin/myelinated axons so as to stain the myelin in blue-green while the neuron remains pink when observed under an optical microscope. Reduction in the degree of staining expresses damage to the neuron.\nThe Bielschowsky silver staining was performed as described before in Litchfield and Nagy, Acta Neuropathol (Berl) 2001, 101(1), pp. 17-21. Briefly, spinal cord sections were place in pre-warmed solution of 10% silver nitrate placed in a 40° C. oven and shaken for 15 minutes until sections became light brown in color, and thereafter rinsed in water. The spinal cord sections were thereafter placed back in the same ammonium silver solution and placed in a 40° C. oven for additional 30 minutes and rinse in water followed by dehydration in 95% ethyl alcohol, absolute alcohol and xylene.\nThe Luxol fast blue staining was perform as described before in Dolcetta et al J Neurosci Res.; 81(4):597-604. Briefly, spinal cord sections were placed in luxol fast blue solution in a 56° C. oven for 16 hours and rinsed with 95% ethyl alcohol and distilled water. Thereafter the spinal cord sections were placed in carbonate solution for 30 seconds and rinsed in water followed by dehydration in 95% ethyl alcohol, absolute alcohol and xylene. […]"}, "[5]": {"details": "0.1% DMSO content in final aqueous solution"}, "[6]": {"details": "0.5% DMSO content in final aqueous solution"}}, "note": "Entries after “also recorded” stand apart in the source; their conditions may differ. Like-named read-outs stand apart in the source and are kept apart here. Marks after values point to notes of the source that are not given here."}
{"molecule": "2,2-fullerenyl-malonic acid bis(adamantan-1-ylcarbamate-diethyleneglycol) ester [Compound 16]", "values": [{"measurement": "Increase of maximal aqueous solubility", "setting": "[1]", "value": 20, "unit": "fold"}]}
{"molecule": "2,2-fullerenyl-malonic acid bis(adamantan-1-ylcarbamate-poly(n)ethyleneglycol) ester wherein average n=10 [Compound 19]", "values": [{"measurement": "Maximal aqueous concentration", "setting": "[1]; [5]", "value": "1.17 10^−5 M"}, {"measurement": "Maximal aqueous concentration", "setting": "[1]; [6]", "value": "5.12 10^−5 M"}, {"measurement": "Maximal aqueous concentration", "setting": "[1]; 1.0% DMSO content in final aqueous solution", "value": "6.97 10^−5 M"}, {"measurement": "Increase of maximal aqueous solubility", "setting": "[1]", "value": 6, "unit": "fold"}]}
{"molecule": "2,2-fullerenyl-malonic acid bis(adamantan-1-ylcarbamate-poly(n)ethyleneglycol) ester wherein average n=10 [Compound 20]", "values": [{"measurement": "Severity of EAE (in words)", "setting": "[2]", "value": "clearly reduce the severity of relapsing-remitting EAE; also recorded: reduction in severity of the disease"}, {"measurement": "Phase II Second Peak Mean Score Disease", "setting": "[2]; day 26", "value": "0.70*"}, {"measurement": "Phase II Second Peak Mean Score Disease", "setting": "[2]; day 27", "value": "0.55*"}, {"measurement": "Phase III Third Peak Mean Score Disease", "setting": "[2]; day 31", "value": "0.60*"}, {"measurement": "Phase III Third Peak Mean Score Disease", "setting": "[2]; day 38", "value": "0.65*"}, {"measurement": "Cumulative Score", "setting": "[2]", "value": "53.0*"}, {"measurement": "Prevalence of Disease with score above 1.5", "setting": "[2]", "value": "4/10"}, {"measurement": "Severity of the disease, mean disease score (in words)", "setting": "[3]; 30 μg/Kg and 300 μg/Kg, compared to NBQX treated and untreated mice, FIG. 4", "value": "reduction in severity of the disease"}, {"measurement": "Death", "setting": "[3]; 30 μg/Kg daily from day 23", "value": "0/14"}, {"measurement": "Phase II Second Peak Mean Score Disease", "setting": "[3]; 30 μg/Kg daily from day 23, day 37", "value": "1.60*"}, {"measurement": "Phase II Second Peak Mean Score Disease", "setting": "[3]; 30 μg/Kg daily from day 23, day 41", "value": "1.50*"}, {"measurement": "Phase III Secondary Progressive Mean Score Disease", "setting": "[3]; 30 μg/Kg daily from day 23, day 62", "value": "2.12*"}, {"measurement": "Phase III Secondary Progressive Mean Score Disease", "setting": "[3]; 30 μg/Kg daily from day 23, day 63", "value": "2.15*"}, {"measurement": "Protection from progression of chronic EAE (in words)", "setting": "[3]; 30 μg/Kg daily, compared to 300 μg/Kg", "value": "significantly protect progression of chronic EAE"}, {"measurement": "Death", "setting": "[3]; 300 μg/Kg daily from day 23", "value": "2/14"}, {"measurement": "Phase II Second Peak Mean Score Disease", "setting": "[3]; 300 μg/Kg daily from day 23, day 37", "value": 2.25}, {"measurement": "Phase II Second Peak Mean Score Disease", "setting": "[3]; 300 μg/Kg daily from day 23, day 41", "value": 2.25}, {"measurement": "Phase III Secondary Progressive Mean Score Disease", "setting": "[3]; 300 μg/Kg daily from day 23, day 62", "value": 3.08}, {"measurement": "Phase III Secondary Progressive Mean Score Disease", "setting": "[3]; 300 μg/Kg daily from day 23, day 63", "value": 3.17}, {"measurement": "Axonal density / axonal damage in white matter of spinal cord (in words)", "setting": "[4]; Bielschowsky silver impregnation, day 63 post-immunization, compared to untreated control mice, FIG. 5", "value": "reduction of EAE-derived axonal damage; also recorded: lower reduction in axonal density"}, {"measurement": "Demyelination of axons in white matter of spinal cord (in words)", "setting": "[4]; Luxol fast blue staining, compared to untreated control mice, FIG. 6", "value": "reduction in demyelination of axons"}, {"measurement": "Progression of chronic EAE as damage to neurons (in words)", "setting": "[4]; treatment initiated after disease onset, FIGS. 5 and 6", "value": "lesser damage caused to the neurons"}]}
{"molecule": "2,2-fullerenyl-malonic acid bis(adamantan-1-ylcarbamate-tetraethyleneglycol) ester [Compound 6]", "values": [{"measurement": "Severity of EAE (in words)", "setting": "[2]", "value": "clearly reduce the severity of relapsing-remitting EAE; also recorded: reduction in severity of the disease"}, {"measurement": "Phase II Second Peak Mean Score Disease", "setting": "[2]; day 26", "value": "0.75*"}, {"measurement": "Phase II Second Peak Mean Score Disease", "setting": "[2]; day 27", "value": 0.80}, {"measurement": "Phase III Third Peak Mean Score Disease", "setting": "[2]; day 31", "value": "0.90*"}, {"measurement": "Phase III Third Peak Mean Score Disease", "setting": "[2]; day 38", "value": 1.30}, {"measurement": "Phase IV Secondary Progressive Mean Score Disease", "setting": "[2]", "value": 2.85}, {"measurement": "Cumulative Score", "setting": "[2]", "value": 90.6}, {"measurement": "Prevalence of Disease with score above 1.5", "setting": "[2]", "value": "9/10"}, {"measurement": "Maximal aqueous concentration", "setting": "[1]; [5]", "value": "1.18 10^−5 M"}, {"measurement": "Maximal aqueous concentration", "setting": "[1]; [6]", "value": "1.38 10^−5 M"}, {"measurement": "Maximal aqueous concentration", "setting": "[1]; 2.0% DMSO content in final aqueous solution", "value": 0.036, "unit": "mg/mL"}, {"measurement": "Increase of maximal aqueous solubility", "setting": "[1]", "value": "more than 2.6 fold"}]}
{"molecule": "O=C(O)C1(C(=O)O)C2=C1C1C3C4=c5c6c7c8c(c9c(c%10c%11c%12c%13c%14c%15c%16c(c2c3c%16c5c%14c6c%12c%108)C=CC%152C(C(=O)O)(C(=O)O)C%132C=C%11)C9(C(=O)O)C(=O)O)C2C=CC1C4C72", "note": "(stereo not drawn) [Carboxyfullerene, C3-stereoisomer of trimalonic acid derivative of a C60 fullerene, reference compound]", "values": [{"measurement": "Phase II Second Peak Mean Score Disease", "setting": "[2]; day 26", "value": 1.00}, {"measurement": "Phase II Second Peak Mean Score Disease", "setting": "[2]; day 27", "value": 0.85}, {"measurement": "Phase III Third Peak Mean Score Disease", "setting": "[2]; day 31", "value": 1.15}, {"measurement": "Phase III Third Peak Mean Score Disease", "setting": "[2]; day 38", "value": 1.45}, {"measurement": "Phase IV Secondary Progressive Mean Score Disease", "setting": "[2]", "value": 2.65}, {"measurement": "Cumulative Score", "setting": "[2]", "value": 87.45}, {"measurement": "Prevalence of Disease with score above 1.5", "setting": "[2]", "value": "8/10"}]}
{"molecule": "NS(=O)(=O)c1cccc2c1c([N+](=O)[O-])cc1nc(O)c(O)nc12", "note": "[NBQX, 2,3-dihydroxy-6-nitro-7-sulfamoyl-benzo(f)quinoxaline, reference compound]", "values": [{"measurement": "Death", "setting": "[3]; 30 mg/Kg daily from day 23", "value": "6/14"}, {"measurement": "Phase II Second Peak Mean Score Disease", "setting": "[3]; 30 mg/Kg daily from day 23, day 37", "value": 1.75}, {"measurement": "Phase II Second Peak Mean Score Disease", "setting": "[3]; 30 mg/Kg daily from day 23, day 41", "value": 1.88}, {"measurement": "Phase III Secondary Progressive Mean Score Disease", "setting": "[3]; 30 mg/Kg daily from day 23, day 62", "value": 3.31}, {"measurement": "Phase III Secondary Progressive Mean Score Disease", "setting": "[3]; 30 mg/Kg daily from day 23, day 63", "value": 3.38}, {"measurement": "Suppression of the second phase of EAE (in words)", "setting": "[3]; 30 mg/Kg, Table 4, FIG. 4", "value": "showed a tendency to suppress the second phase of EAE"}, {"measurement": "Preventing the chronic disease progression (in words)", "setting": "[3]; NBQX 30 mg/Kg compared to Compound 20 at 30 and 300 μg/Kg", "value": "not as effective as the Compound 20"}]}
